# Data: patent US20250092014A1, “COMPOUNDS AND METHODS OF ACTIVATING LIPOPROTEIN LIPASE” (Metrea Biosciences, Inc., priority 2021, published 2025)
# Target: T1, LPL:sGPIHBP1 complex (Homo sapiens, UniProt P06858)
# T1 sequence (P06858 28-475): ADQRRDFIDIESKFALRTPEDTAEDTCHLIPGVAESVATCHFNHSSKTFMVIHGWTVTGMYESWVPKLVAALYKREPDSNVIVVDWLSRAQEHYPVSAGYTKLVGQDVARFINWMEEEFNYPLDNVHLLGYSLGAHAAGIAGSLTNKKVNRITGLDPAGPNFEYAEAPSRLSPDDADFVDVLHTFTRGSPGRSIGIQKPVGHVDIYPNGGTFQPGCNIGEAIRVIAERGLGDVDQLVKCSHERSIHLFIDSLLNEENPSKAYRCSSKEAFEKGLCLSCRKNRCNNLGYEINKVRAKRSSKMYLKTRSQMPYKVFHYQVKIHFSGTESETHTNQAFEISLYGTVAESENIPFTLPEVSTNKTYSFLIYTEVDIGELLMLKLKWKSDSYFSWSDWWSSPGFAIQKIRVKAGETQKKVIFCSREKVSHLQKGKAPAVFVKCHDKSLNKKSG
# T1 sequence (Q8IV16 21-151 partner limits assumed): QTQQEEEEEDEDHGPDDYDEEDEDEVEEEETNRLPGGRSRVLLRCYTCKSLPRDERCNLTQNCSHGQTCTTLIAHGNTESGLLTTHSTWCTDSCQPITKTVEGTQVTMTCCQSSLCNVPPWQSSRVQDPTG
# Experiment: RB assay (LPL:sGPIHBP1 pre-incubated with ANGPTL4, RB substrate)
# Type: biochemical
# Settings: read-out: RB qAC50
# Protocol: The assay was performed in black 1536-well plates using purified proteins. To identify compounds that stimulate LPL activity either by directly activating LPL or by inhibiting the antagonist ANGPTL4, the LPL:sGPIHBP1 complex was pre-incubated with ANGPTL4 to decrease LPL activity by 80%. After a 60 min pre-incubation, the reaction was started by adding the RB substrate. 30 min after RB addition, the enzymatic reaction was stopped using SDS. Fluorescence intensity was measured 2 h after stopping the reaction.
# 20 or 40 nl of compound solution in 100% DMSO were placed in test plate. Then was added LPL:sGPIHBP1 to all wells (diluted in assay buffer to 5 nM; 2 μl/well). This was followed by an addition of ANGPTL4 to compounds and neutral controls (diluted in assay buffer to 20 nM; 1 μl/well). A buffer solution was added to the stimulator control (1 μl/well). The plates were then centrifuged and pre-incubated for 60 min at RT. The reaction was started by adding substrate to all wells (diluted in assay buffer to 40 μM, 1 μl/well). The plated were centrifuged (800 rpm for 1 min) and incubated 30 min at RT (=reaction time). The reaction was stopped by adding SDS to all wells (diluted in water to 2.5%, 2 μl/well); incubated 2 h at RT. The fluorescence intensity (ex 540 nm/em 590 nm) was measured on a Pherastar (BMG) using 5 flashes.
row,EC50 [µM],SMILES
1,4.7,"Cc1cc(Cn2nc(C(=O)Nc3cc(C(=O)Nc4ccc(F)cc4CC(=O)O)ccc3N3CCCCC3)c3ccccc32)no1 [Compound 124, 2-(5-fluoro-2-(3-(1-((5-methylisoxazol-3-yl)methyl)-1H-indazole-3-carboxamido)-4-(piperidin-1-yl)benzamido)phenyl)acetic acid]"
2,7.7,"CC(C)(O)Cn1nc(C(=O)Nc2cc(C(=O)Nc3ccc(F)cc3CC(=O)O)ccc2N2CCCCC2)c2ccccc21 [Compound 106, 2-(5-fluoro-2-(3-(1-(2-hydroxy-2-methylpropyl)-1H-indazole-3-carboxamido)-4-(piperidin-1-yl)benzamido)phenyl)acetic acid]"
3,6.6,"O=C(O)Cc1cc(F)ccc1NC(=O)c1ccc(N2CCCCC2)c(NC(=O)c2nn(CC3CCCO3)c3ccccc23)c1 (centres unmarked) [Compound 119, 2-(5-fluoro-2-(4-(piperidin-1-yl)-3-(1-((tetrahydrofuran-2-yl)methyl)-1H-indazole-3-carboxamido)benzamido)phenyl)acetic acid]"
4,> 25,"Cc1cccc2c1c(C(=O)Nc1cc(C(=O)Nc3ccc(F)cc3CC(=O)O)ccc1N1CCCCC1)nn2CC(F)(F)F [Compound 141, 2-(5-fluoro-2-(3-(4-methyl-1-(2,2,2-trifluoroethyl)-1H-indazole-3-carboxamido)-4-(piperidin-1-yl)benzamido)phenyl)acetic acid]"
5,15,"O=C(O)Cc1cc(F)ccc1NC(=O)c1ccc(N2CCCCC2)c(NC(=O)c2nn(CC(F)(F)F)c3c2CCC3)c1 [Compound 145, 2-(5-fluoro-2-(4-(piperidin-1-yl)-3-(1-(2,2,2-trifluoroethyl)-1,4,5,6-tetrahydrocyclopenta[c]pyrazole-3-carboxamido)benzamido)phenyl)acetic acid]"
6,4.2,"O=C(O)Cc1cc(F)ccc1NC(=O)c1ccc(N2CCCCC2)c(NC(=O)c2nn(CCC(F)(F)F)c3ccccc23)c1 [Compound 121, 2-(5-fluoro-2-(4-(piperidin-1-yl)-3-(1-(3,3,3-trifluoropropyl)-1H-indazole-3-carboxamido)benzamido)phenyl)acetic acid]"
7,3.8,"O=C(O)Cc1cc(F)ccc1NC(=O)c1ccc(N2CCCCC2)c(NC(=O)c2nn(C[C@H]3CCCO3)c3ccccc23)c1 [Compound 137, (R)-2-(5-fluoro-2-(4-(piperidin-1-yl)-3-(1-((tetrahydrofuran-2-yl)methyl)-1H-indazole-3-carboxamido)benzamido)phenyl)acetic acid]"
8,5,"Cc1ccc2c(C(=O)Nc3cc(C(=O)Nc4ccc(F)cc4CC(=O)O)ccc3N3CCCCC3)nn(CC(F)(F)F)c2c1 [Compound 143, 2-(5-fluoro-2-(3-(6-methyl-1-(2,2,2-trifluoroethyl)-1H-indazole-3-carboxamido)-4-(piperidin-1-yl)benzamido)phenyl)acetic acid]"
9,4.2,"O=C(O)Cc1cc(F)ccc1NC(=O)c1ccc(N2CCCCC2)c(NC(=O)c2nn(CC3CCCOC3)c3ccccc23)c1 (centres unmarked) [Compound 133, 2-(5-fluoro-2-(4-(piperidin-1-yl)-3-(1-((tetrahydro-2H-pyran-3-yl)methyl)-1H-indazole-3-carboxamido)benzamido)phenyl)acetic acid]"
10,> 7.1,"O=C(O)Cc1cc(F)ccc1NC(=O)c1ccc(N2CCCCC2)c(NC(=O)c2nn(CC3CCOC3)c3ccccc23)c1 (centres unmarked) [Compound 118, 2-(5-fluoro-2-(4-(piperidin-1-yl)-3-(1-((tetrahydrofuran-3-yl)methyl)-1H-indazole-3-carboxamido)benzamido)phenyl)acetic acid]"
11,0.66,"O=C(O)Cc1cc(F)ccc1NC(=O)c1ccc(N2CCCCC2)c(NC(=O)c2cn(CC(F)(F)F)c3ccccc23)c1 [Compound 128, 2-(5-fluoro-2-(4-(piperidin-1-yl)-3-(1-(2,2,2-trifluoroethyl)-1H-indole-3-carboxamido)benzamido)phenyl)acetic acid]"

# Continued, compound first:
row,SMILES,EC50 [µM]
1,N#CC1CCN(c2ccc(C(=O)Nc3ccc(F)cc3CC(=O)O)cc2NC(=O)c2nn(CC(F)(F)F)c3ccccc23)CC1 [Example 48],> 25
2,O=C(O)Cc1cc(F)ccc1NC(=O)c1ccc(N2CC3(CCC3)C2)c(NC(=O)c2nn(CC(F)(F)F)c3ccccc23)c1 [Example 49],20
3,"O=C(O)Cc1cc(F)ccc1NC(=O)c1ccc(N2CCC2)c(NC(=O)c2nn(CC(F)(F)F)c3ccccc23)c1 [Compound 39, 2-(2-(4-(azetidin-1-yl)-3-(1-(2,2,2-trifluoroethyl)-1H-indazole-3-carboxamido)benzamido)-5-fluorophenyl)acetic acid]",> 25
4,"O=C(O)Cc1cc(F)ccc1NC(=O)c1cc(NC(=O)c2nn(CC(F)(F)F)c3ccccc23)c(N2CCCCC2)cn1 [Compound 43, 2-(5-fluoro-2-(5-(piperidin-1-yl)-4-(1-(2,2,2-trifluoroethyl)-1H-indazole-3-carboxamido)picolinamido)phenyl)acetic acid]",> 7.1
5,O=C(O)Cc1cc(C(F)(F)F)ccc1NC(=O)c1ccc(N2CCCCC2)c(NC(=O)c2nn(CC(F)(F)F)c3ccccc23)c1 [Example 22],4.3
6,O=C(O)Cc1cc(F)ccc1NC(=O)c1ccc(N2CCC3(CC3)C2)c(NC(=O)c2nn(CC(F)(F)F)c3ccccc23)c1 [Example 53],6.8
7,O=C(O)Cc1cc(F)ccc1NC(=O)c1ccc(N2CCOC2=O)c(NC(=O)c2nn(CC(F)(F)F)c3ccccc23)c1 [Example 60],> 25
8,"O=C(O)Cc1cc(F)ccc1NC(=O)c1ccc(N2CCCCC2)c(NC(=O)c2nn(CC(F)F)c3ccccc23)c1 [Compound 96, 2-(2-(3-(1-(2,2-difluoroethyl)-1H-indazole-3-carboxamido)-4-(piperidin-1-yl)benzamido)-5-fluorophenyl)acetic acid]",4.7
9,O=C(O)Cc1cc(F)ccc1NC(=O)c1ccc(N2CCOCC2)c(NC(=O)c2nn(CC(F)(F)F)c3ccccc23)c1 [Example 56],15
10,"CC(C)Cn1nc(C(=O)Nc2cc(C(=O)Nc3ccc(F)cc3CC(=O)O)ccc2N2CCCCC2)c2ccccc21 [Compound 95, 2-(5-fluoro-2-(3-(1-isobutyl-1H-indazole-3-carboxamido)-4-(piperidin-1-yl)benzamido)phenyl)acetic acid]",5
11,O=C(O)Cc1cc(F)ccc1NC(=O)c1ccc(N2CC3CC3C2)c(NC(=O)c2nn(CC(F)(F)F)c3ccccc23)c1 (centres unmarked) [Example 52],5
12,COC1CCN(c2ccc(C(=O)Nc3ccc(F)cc3CC(=O)O)cc2NC(=O)c2nn(CC(F)(F)F)c3ccccc23)CC1 [Example 65],> 7.1
13,"O=C(O)Cc1cc(F)ccc1NC(=O)c1cnc(N2CCCCC2)c(NC(=O)c2nn(CC(F)(F)F)c3ccccc23)c1 [Compound 44, 2-(5-fluoro-2-(6-(piperidin-1-yl)-5-(1-(2,2,2-trifluoroethyl)-1H-indazole-3-carboxamido)nicotinamido)phenyl)acetic acid]",> 25
14,O=C(O)Cc1cc(F)ccc1NC(=O)c1ccc(N2C3CCC2CC3)c(NC(=O)c2nn(CC(F)(F)F)c3ccccc23)c1 [Example 54],6.9
15,"O=C(O)Cc1cc(F)ccc1NC(=O)c1ccc(N2CCCCC2)c(NC(=O)c2nn(CC3CCOCC3)c3ccccc23)c1 [Compound 104, 2-(5-fluoro-2-(4-(piperidin-1-yl)-3-(1-((tetrahydro-2H-pyran-4-yl)methyl)-1H-indazole-3-carboxamido)benzamido)phenyl)acetic acid]",3.2
16,"O=C(O)Cc1c(F)cccc1NC(=O)c1ccc(N2CCCCC2)c(NC(=O)c2nn(CC(F)(F)F)c3ccccc23)c1 [Compound 37, 2-(2-fluoro-6-(4-(piperidin-1-yl)-3-(1-(2,2,2-trifluoroethyl)-1H-indazole-3-carboxamido)benzamido)phenyl)acetic acid]",5
17,"N#CCn1nc(C(=O)Nc2cc(C(=O)Nc3ccc(F)cc3CC(=O)O)ccc2N2CCCCC2)c2ccccc21 [Compound 102, 2-(2-(3-(1-(cyanomethyl)-1H-indazole-3-carboxamido)-4-(piperidin-1-yl)benzamido)-5-fluorophenyl)acetic acid]",5.1
18,"O=C(O)Cc1cc(F)ccc1NC(=O)c1ccc(N2CCCCC2)c(NC(=O)c2nn(CCO)c3ccccc23)c1 [Compound 99, 2-(5-fluoro-2-(3-(1-(2-hydroxyethyl)-1H-indazole-3-carboxamido)-4-(piperidin-1-yl)benzamido)phenyl)acetic acid]",> 25
